Measured values reported in patent US10633419B2, “Immunomodulators” (BRISTOL-MYERS SQUIBB COMPANY, priority 2014, dated 2020).
Positions of bridges follow the written chain, without caps; N, C: chain ends. Non-standard residues stand in square brackets, D forms with d. Residues, ends and D or L forms follow the SMILES beside them. ξ: configuration not given here. *: point of attachment. X12 = O=C(O)CCCCCCCCCCCCCCCCCCC(=O)N[C@@H](CCC(=O)NCCCOCCOCCOCCCN*)C(=O)O; X6 = O=C(O)CCCCCCCCCCCCCCCCC(=O)N[C@@H](CCC(=O)NCCCOCCOCCOCCCN*)C(=O)O; Trp(1-CH2COOH) = N[C@@H](Cc1cn(CC(=O)O)c2ccccc12)C(=O)O; d(cisHyp) = O=C(O)[C@H]1C[C@@H](O)CN1; ξPro(4R-OH) = O=C(O)C1C[C@@H](O)CN1; Hyp = O=C(O)[C@@H]1C[C@@H](O)CN1; NMeNle = CCCC[C@H](NC)C(=O)O; NMeA = CN[C@@H](C)C(=O)O; Pra = C#CC[C@H](N)C(=O)O; Dab = NCC[C@H](N)C(=O)O; Dap = NC[C@H](N)C(=O)O

Molecular target: T1, PD-L1 (Homo sapiens, UniProt Q9NZQ7)
T1 construct: hPDL1(19-239)-TVMV-His; made in house; host or cells: HEK293T
Assay: PD-1/PD-L1 Homogenous Time-Resolved Fluorescence (HTRF) binding assay (PD-1-Ig/PD-L1-His)
Details: inhibition of PD-1-Ig binding to PD-L1-TVMV-His; value given as range class; read-out: HTRF IC50
Description: The ability of the macrocyclic peptides of the present disclosure to bind to PD-L1 was investigated using a PD-1/PD-L1 Homogenous Time-Resolved Fluorescence (HTRF) binding assay.
Homogenous Time-Resolved Fluorescence (HTRF) Assays of Binding of Soluble PD-1 to Soluble PD-L1. Soluble PD-1 and soluble PD-L1 refers to proteins with carboxyl-end truncations that remove the transmembrane-spanning regions and are fused to heterologous sequences, specifically the Fc portion of the human immunoglobuling G sequence (Ig) or the hexahistidine epitope tag (His). All binding studies were performed in an HTRF assay buffer consisting of dPBS supplemented with 0.1% (w/v) bovine serum albumin and 0.05% (v/v) Tween-20. For the PD-1-Ig/PD-L1-His binding assay, inhibitors were pre-incubated with PD-L1-His (10 nM final) for 15 m in 4 μl of assay buffer, followed by addition of PD-1-Ig (20 nM final) in 1 μl of assay buffer and further incubation for 15m. PD-L1 fusion proteins from either human, cynomologous macaques, mouse, or other species were used. HTRF detection was achieved using europium crypate-labeled anti-Ig monoclonal antibody (1 nM final) and allophycocyanin (APC) labeled anti-His monoclonal antibody (20 nM final). Antibodies were diluted in HTRF detection buffer and 5 μl was dispensed on top of binding reaction. The reaction was allowed to equilibrate for 30 minutes and signal (665 nm/620 nm ratio) was obtained using an EnVision fluorometer. Additional binding assays were established between PD-1-Ig/PD-L2-His (20 and 5 nM, respectively), CD80-His/PD-L1-Ig (100 and 10 nM, respectively) and CD80-His/CTLA4-Ig (10 and 5 nM, respectively). Binding/competition studies between biotinylated Compound No. 71 and human PD-L1-His were performed as follows. Macrocyclic peptide inhibitors were pre-incubated with PD-L1-His (10 nM final) for 60 minutes in 4 μl of assay buffer followed by addition of biotinylated Compound No. 71 (0.5 nM final) in 1 μl of assay buffer. Binding was allowed to equilibrate for 30 minutes followed by addition of europium crypated labeled Streptavidin (2.5 pM final) and APC-labeled anti-His (20 nM final) in 5 μl of HTRF buffer. The reaction was allowed to equilibrate for 30m and signal (665 nm/620 nm ratio) was obtained using an EnVision fluorometer.
Recombinant Proteins. Carboxyl-truncated human PD-1 (amino acids 25-167) with a C-terminal human Ig epitope tag [hPD-1 (25-167)-3S-IG] and human PD-L1 (amino acids 18-239) with a C-terminal His epitope tag [hPD-L1(19-239)-tobacco vein mottling virus protease cleavage site (TVMV)-His] were expressed in HEK293T cells and purified sequentially by recombinant Protein A affinity chromatography and size exclusion chromatography. Human PD-L2-His (Sino Biologicals), CD80-His (Sino Biologicals), CTLA4-Ig (RnD Systems) were all obtained through commercial sources.

T1 sequence (Q9NZQ7 with tags, fused parts or gaps): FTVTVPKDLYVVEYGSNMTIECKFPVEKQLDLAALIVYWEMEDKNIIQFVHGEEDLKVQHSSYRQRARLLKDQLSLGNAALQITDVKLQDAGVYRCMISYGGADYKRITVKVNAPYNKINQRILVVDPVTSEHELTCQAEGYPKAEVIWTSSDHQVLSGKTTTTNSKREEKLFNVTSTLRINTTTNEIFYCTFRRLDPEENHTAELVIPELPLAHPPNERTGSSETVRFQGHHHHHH

SMILES | IC50
CCCC[C@H]1C(=O)N(C)[C@@H](CCCC)C(=O)N[C@@H](CC(C)C)C(=O)N[C@H](C(=O)NCC(=O)NCC(=O)N[C@@H](Cc2cn(CC[C@H](NC(=O)CCCCCCCCCCCCCCCCC(=O)O)C(=O)O)nn2)C(=O)O)CSCC(=O)N[C@@H](Cc2ccc(O)cc2)C(=O)N(C)[C@@H](C)C(=O)N[C@@H](CC(N)=O)C(=O)N2CCC[C@H]2C(=O)N[C@@H](CN)C(=O)N[C@@H](CC(C)C)C(=O)N2C[C@H](O)C[C@H]2C(=O)N[C@@H](Cc2c[nH]c3ccccc23)C(=O)N[C@@H](CCN)C(=O)N[C@@H](Cc2cn(CC(=O)O)c3ccccc23)C(=O)N1C [Example 13122] | 100 to 1600 nM
CCCC[C@H]1C(=O)N(C)[C@@H](CCCC)C(=O)N[C@@H](CC(C)C)C(=O)N[C@H](C(=O)NCC(=O)N[C@@H](Cc2cn(CCCNC(=O)CCCCCCCCCCCCCCCCC(=O)O)nn2)C(=O)O)CSCC(=O)N[C@@H](Cc2ccc(O)cc2)C(=O)N(C)[C@@H](C)C(=O)N[C@@H](CC(N)=O)C(=O)N2CCC[C@H]2C(=O)N[C@@H](CN)C(=O)N[C@@H](CC(C)C)C(=O)N2C[C@H](O)C[C@H]2C(=O)N[C@@H](Cc2c[nH]c3ccccc23)C(=O)N[C@@H](CCN)C(=O)N[C@@H](Cc2cn(CC(=O)O)c3ccccc23)C(=O)N1C [Example 14126] | 0.3 to 9.9 nM
CCCC[C@H]1C(=O)N(C)[C@@H](CCCC)C(=O)N[C@@H](CC(C)C)C(=O)N[C@H](C(=O)N[C@@H](Cc2cn(CCC(NC(=O)CCCCCCCCCCCCCCCCC(=O)O)C(=O)O)nn2)C(=O)O)CSCC(=O)N[C@@H](Cc2ccc(O)cc2)C(=O)N(C)[C@@H](C)C(=O)N[C@@H](CC(N)=O)C(=O)N2CCC[C@H]2C(=O)N[C@@H](CN)C(=O)N[C@@H](CC(C)C)C(=O)N2C[C@H](O)C[C@H]2C(=O)N[C@@H](Cc2c[nH]c3ccccc23)C(=O)N[C@@H](CCN)C(=O)N[C@@H](Cc2cn(CC(=O)O)c3ccccc23)C(=O)N1C (stereo partly drawn) [Example 13129] | 10 to 99 nM
C#CC[C@H](NC(=O)[C@@H]1CSCC(=O)N[C@@H](Cc2ccc(O)cc2)C(=O)N(C)[C@@H](C)C(=O)N[C@@H](CC(N)=O)C(=O)N2CCC[C@H]2C(=O)N[C@@H](CN)C(=O)N[C@@H](CC(C)C)C(=O)N2C[C@H](O)C[C@H]2C(=O)N[C@@H](Cc2c[nH]c3ccccc23)C(=O)N[C@@H](CCN)C(=O)N[C@@H](Cc2cn(CC(=O)O)c3ccccc23)C(=O)N(C)[C@@H](CCCC)C(=O)N(C)[C@@H](CCCC)C(=O)N[C@@H](CC(C)C)C(=O)N1)C(=O)O [INT130AF] ({CH2CO}-Y[NMeA]NP[Dap]L[Hyp]W[Dab][Trp(1-CH2COOH)][NMeNle][NMeNle]LC[Pra]-OH; thioether N-14) | 0.3 to 9.9 nM
CCCC[C@H]1C(=O)N(C)[C@@H](CCCC)C(=O)N[C@@H](CC(C)C)C(=O)N[C@H](C(=O)NCC(=O)N[C@@H](CC(=O)O)C(=O)NCCCOCCOCCOCCCNC(=O)CC[C@H](NC(=O)CCCCCCCCCCCCCCCCC(=O)O)C(=O)O)CSCC(=O)N[C@@H](Cc2ccc(O)cc2)C(=O)N(C)[C@@H](C)C(=O)N[C@@H](CC(N)=O)C(=O)N2CCC[C@H]2C(=O)N[C@@H](CN)C(=O)N[C@@H](CC(C)C)C(=O)N2C[C@H](O)C[C@@H]2C(=O)N[C@@H](Cc2c[nH]c3ccccc23)C(=O)N[C@@H](CCN)C(=O)N[C@@H](Cc2cn(CC(=O)O)c3ccccc23)C(=O)N1C [Example 11166] ({CH2CO}-Y[NMeA]NP[Dap]L[d(cisHyp)]W[Dab][Trp(1-CH2COOH)][NMeNle][NMeNle]LCGD-X6; thioether N-14) | 100 to 1600 nM
CCCC[C@H]1C(=O)N(C)[C@@H](CCCC)C(=O)N[C@@H](CC(C)C)C(=O)N[C@H](C(=O)NCC(=O)N[C@@H](CC(=O)O)C(=O)N[C@@H](CC(=O)NCCCOCCOCCOCCCNC(=O)CC[C@H](NC(=O)CCCCCCCCCCCCCCCCCCC(=O)O)C(=O)O)C(=O)O)CSCC(=O)N[C@@H](Cc2ccc(O)cc2)C(=O)N(C)[C@@H](C)C(=O)N[C@@H](CC(N)=O)C(=O)N2CCC[C@H]2C(=O)N[C@@H](CN)C(=O)N[C@@H](CC(C)C)C(=O)N2C[C@H](O)CC2C(=O)N[C@@H](Cc2c[nH]c3ccccc23)C(=O)N[C@@H](CCN)C(=O)N[C@@H](Cc2cn(CC(=O)O)c3ccccc23)C(=O)N1C (stereo partly drawn) [Example 11250] ({CH2CO}-Y[NMeA]NP[Dap]L[ξPro(4R-OH)]W[Dab][Trp(1-CH2COOH)][NMeNle][NMeNle]LCGDD(X12)-OH; thioether N-14) | 0.3 to 9.9 nM
